According to US7744867B2, “PTPase inhibitors and method of using same” (The Cleveland Clinic Foundation, priority 2001, dated 2010):

How the values were obtained:
[1] = test system: Peer cells (T-ALL); assay: Growth inhibition of human tumor cell lines; format: cell-based; settings: SS 12.5 μg/ml, IFNα 1,000 u/ml, alone or combined
[2] = test system: WiT49-N1 cells (Wilms tumor); assay: Growth inhibition of human tumor cell lines (MTT); format: cell-based; settings: SS 12.5 μg/ml, IFNα 1,000 u/ml, alone or combined
Source text: FIG. 9 illustrates growth inhibition of human cell lines of non-hematopoietic malignancies by sodium stibogluconate and/or IFNα. Percentage of growth inhibition of WM9 (A), DU145 (B), MDA231 (C) and WiT49-N1 (D) in the absence or presence of various amounts of sodium stibogluconate and/or IFNα (1,000 u/ml) in day 6 cultures as measured by MTT assays.

[3] = test system: H9 cells (T-lymphoma); assay: Growth inhibition of human tumor cell lines; format: cell-based; settings: SS 12.5 μg/ml, IFNα 1,000 u/ml, alone or combined
[4] = molecular target: T1, intracellular Flag-PRL-2 (Homo sapiens, UniProt Q12974); assay: PTPase activity of anti-Flag immunocomplexes from NIH3T3 transfectants; format: cell-based
T1 construct: expressed in transfected cells; host or cells: NIH3T3
T1 sequence (Q12974 1-167): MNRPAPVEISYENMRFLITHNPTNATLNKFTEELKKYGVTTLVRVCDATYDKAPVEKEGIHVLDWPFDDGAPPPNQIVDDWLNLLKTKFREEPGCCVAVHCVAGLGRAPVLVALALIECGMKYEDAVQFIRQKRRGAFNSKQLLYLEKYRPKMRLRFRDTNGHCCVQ
Method: An expression construct of Flag-tagged PRL-1 or control vector was transfected into NIH3T3 cells which were then treated without or with sodium stibogluconate and used for immunoprecipitation assays with a monoclonal anti-Flag antibody. The immunocomplexes were analyzed by SDS-PAGE/Western blotting and PTPase assays. A Flag-tagged protein with a molecular weight approximately 22 kDa as expected for Flag-PRL-1 was detected in the immunocomplexes from untreated or sodium stibogluconate -treated Flag-PRL-1 transfectants but not in those from the control cells (FIG. 6A).
Flag-PRL-2 transfectants were briefly treated with sodium stibogluconate for 5 minutes, washed to remove cell-free drug and then incubated for various times prior to termination by cell lysis. Anti-Flag immunocomplexes from the cells were analyzed by SDS-PAGE/Western blotting and PTPase assays. The amounts of Flag-PRL-2 proteins in the immunocomplexes were at similar levels as quantified by probing with an anti-Flag antibody. […] PTPase activity of the immunocomplexes from cells incubated for 24 hours was 78% of the untreated cells.
Glucatime-induced inactivation of intracellular PRL-2 lasts more than 24 hours. NIH3T3 stable transfectant of Flag-tagged PRL-2 was treated with glucatime for 5 minutes, washed to remove cell free drug and then incubated for various times prior to termination by lysing the cells in lysis buffer. Flag-tagged PRL-2 was immunoprecipitated from the cell lysates using a monoclonal anti-Flag antibody. The amounts of Flag-tagged PRL-2 in the immunocomplexes were quantified by SDS-PAGE/Western blotting with the anti-Flag antibody (A). Activities of the immunocomplexes in dephosphorylating a synthetic phosphotyrosine peptide were determined by in vitro PTPase assays (B).

[5] = molecular target: T2, GST/SHP-1 fusion protein (Mus musculus, UniProt P29351); assay: In vitro PTPase assay, dephosphorylation of a synthetic phosphotyrosine peptide; format: biochemical; settings: Sb concentration of 10 μg/ml
T2 construct: made in house
T2 sequence (P29351 whole entry, the tested form may be a part): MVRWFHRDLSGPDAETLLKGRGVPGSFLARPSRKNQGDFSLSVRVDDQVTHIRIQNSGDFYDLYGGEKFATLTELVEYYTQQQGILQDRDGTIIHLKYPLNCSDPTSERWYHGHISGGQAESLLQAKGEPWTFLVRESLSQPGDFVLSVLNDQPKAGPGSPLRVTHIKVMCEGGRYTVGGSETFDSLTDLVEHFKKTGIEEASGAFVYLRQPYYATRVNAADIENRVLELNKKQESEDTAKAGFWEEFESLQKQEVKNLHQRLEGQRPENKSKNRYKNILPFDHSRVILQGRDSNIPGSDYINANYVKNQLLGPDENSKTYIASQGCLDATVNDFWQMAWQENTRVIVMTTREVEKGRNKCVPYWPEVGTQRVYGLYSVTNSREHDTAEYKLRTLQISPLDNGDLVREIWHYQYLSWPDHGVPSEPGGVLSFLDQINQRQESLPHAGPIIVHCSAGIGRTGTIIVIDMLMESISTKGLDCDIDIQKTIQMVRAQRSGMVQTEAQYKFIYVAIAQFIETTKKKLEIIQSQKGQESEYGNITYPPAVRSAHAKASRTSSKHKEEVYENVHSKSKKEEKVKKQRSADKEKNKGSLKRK
Method: In vitro PTPase activities were measured using the commercial protein tyrosine phosphatase assay kit (UBI) following established procedure. This assay measures the in vitro dephosphorylation of a synthetic phosphotyrosine peptide (R-R-L-I-E-D-A-E-pY-A-A-R-G). Briefly, 0.01 μg of GST/PTPase fusion protein was incubated in 50 μl of Tris buffer (10 mM Tris, […]) at 22° C. for 10 minutes, followed by addition of 0.2 mM of the phosphotyrosine peptide and incubation at 22° C. for 18 hours. 100 μl of Malachite Green solution was added and incubated for 5 minutes, and the absorbance at 660 nm was measured after 5 minutes.

[6] = Tolerability in nude mice (viability, body weight, appearance); format: in vivo
Method: The effective dosage of sodium stibogluconate against WM9 and DU145 xenografts is well tolerated in nude mice. […] Thus dosage is much higher than the standard dose for Leishmaniasis (20 mg Sb/kg, daily). As an initial step to assess the toxicity of such a high dosage of sodium stibogluconate in nude mice, its effect on the viability and body weights of WM9 xenografts nude mice during the 25 day period of the study was determined.

[7] = test system: NB4 cells; assay: Differentiation, proliferation and cell cycle of AML cell line; format: cell-based, human
Method: Cell lines, cell culture, and cell proliferation assay. The NB4 cell line was a gift from Dr. Dan Lindner of CCF. HL60 and U937 cell lines were purchased from ATCC. These human AML cell lines were maintained in RPMI 1640 medium supplemented with 10% fetal calf serum (FCS). For cell proliferation assays, cells were cultured at 37° C. in 10% FCS medium containing various amounts of sodium stibogluconate for 6 days. The cell numbers in the cultures were determined by an MTT assay as described previously.
Differentiation of AML cell lines was assessed by their ability to produce superoxide as measured by reduction of NBT to formazan and by analysis of expression of CD11b surface marker by flow cytometry. For NBT reduction, each cell suspension was mixed with an equal volume of solution containing 1 mg/ml of NBT (Sigma) and 2.5 μg/ml of TPA for 30 minutes at 37° C. After incubation, cells containing the purple formazan deposits and cells devoid of NBT-reducing activity (white cells) in each sample were determined by counting 200 cells under microscope. We expressed the data as percentage of the following ratio: purple cells/purple+white cells. For analysis of cell surface antigens, cells were exposed to phycoerythrin (PE)−conjugated murine anti-human CD11b (DAKO corp, Carpinteria, Calif.). Analysis of fluorescence was performed on a FACScan flow cytometer (Beckton Dickinson, Mountain View, Calif.). The cell cycle was analyzed by flow cytometry after 3 days of culture of NB4 cells in the absence or presence of sodium stibogluconate (250 μg/ml) or ATRA (1 μM). Briefly, the cells were fixed in cold ethanol and incubated for 30 minutes at 4° C. in the dark with a solution of […] propidium iodide, 1 mg/ml RNase and 0.1% NP-40. Analysis was performed immediately after staining using the CELLFIT program (Becton Dickinson, Mountain View, Calif.).

Compound | % of growth inhibition by day 6 (±s.d.) [1] | % of growth inhibition by day 6 (±s.d.) [2] | % of growth inhibition by day 6 (±s.d.) [3] | PTPase activity of Flag-PRL-2 immunocomplexes from treated transfectants ([4]; treated 5 min) | duration of intracellular PRL-2 inactivation ([4]; treated 5 minutes, washed to remove cell free drug) | effect on recombinant SHP-1 [5] | tolerability ([6]; 12 mg Sb daily (440 mg Sb/kg daily), s.c., 25 day study) | daily dose that mice could tolerate ([6]; pilot study, approximately 700-800 mg Sb/kg) | proliferation of NB4 cells ([7]; 12.5-400 μg/ml, 6 days) | cell cycle arrest (DNA content analysis) ([7]; 3 days, sodium stibogluconate 250 μg/ml, ATRA 1 μM) | expression levels of PML/RARα chimeric protein ([7]; NB4 cells) | NB4 cell differentiation (NBT positive cells) ([7]; dose- and time-dependent)
IFNα | 86 (4) % | 22 (11) % | 86 (3) % |  |  |  |  |  |  |  |  | 
O.O.O.O.O.O.O.O.O.O=C([O-])[C@@H]1[O][Sb]2([O-])([O][Sb]34([OH])[O][C@H]([C@H](O)CO)[C@H]([O]3)[C@H](C(=O)[O-])[O]4)[O][C@H]([C@H](O)CO)[C@@H]1[O]2.[Na+].[Na+].[Na+] [sodium stibogluconate] |  |  |  | lack of PTPase activity | at least 24 hours | inactivated | well tolerated with no serious side effect | 20 mg Sb | markedly inhibited | growth arrest at S phase | no detectable effect | induced
